# Test: Plasma buprenorphine concentration after single administration (LC-MS/MS)
# Conditions: 0.1 mg/kg in terms of buprenorphine, cynomolgus monkey
smiles,measurement,setting,value
"CO[C@@]12CC[C@@]3(C[C@@H]1[C@](C)(O)C(C)(C)C)[C@H]1Cc4ccc(O)c5c4[C@@]3(CCN1CC1CC1)[C@H]2O5.Cl [Comparative Example 2, buprenorphine hydrochloride]",Plasma buprenorphine concentration,"0 min, mean ± SD, intravenous",0 ng/mL
same,Plasma buprenorphine concentration,"10 min, Animal 1, intravenous",41.40 ng/mL
same,Plasma buprenorphine concentration,"10 min, Animal 2, intravenous",32.16 ng/mL
same,Plasma buprenorphine concentration,"10 min, Animal 3, intravenous",41.33 ng/mL
same,Plasma buprenorphine concentration,"10 min, mean ± SD, intravenous",38.30 ± 5.31 ng/mL
same,Plasma buprenorphine concentration,"30 min, Animal 1, intravenous",32.83 ng/mL
same,Plasma buprenorphine concentration,"30 min, Animal 2, intravenous",18.02 ng/mL
same,Plasma buprenorphine concentration,"30 min, Animal 3, intravenous",33.53 ng/mL
same,Plasma buprenorphine concentration,"30 min, mean ± SD, intravenous",28.12 ± 8.76 ng/mL
same,Plasma buprenorphine concentration,"60 min, Animal 1, intravenous",16.85 ng/mL
same,Plasma buprenorphine concentration,"60 min, Animal 2, intravenous",16.45 ng/mL
same,Plasma buprenorphine concentration,"60 min, Animal 3, intravenous",26.51 ng/mL
same,Plasma buprenorphine concentration,"60 min, mean ± SD, intravenous",19.94 ± 5.70 ng/mL
same,Plasma buprenorphine concentration,"120 min, Animal 1, intravenous",8.27 ng/mL
same,Plasma buprenorphine concentration,"120 min, Animal 2, intravenous",9.34 ng/mL
same,Plasma buprenorphine concentration,"120 min, Animal 3, intravenous",16.13 ng/mL
same,Plasma buprenorphine concentration,"120 min, mean ± SD, intravenous",11.25 ± 4.26 ng/mL
same,Plasma buprenorphine concentration,"240 min, Animal 1, intravenous",3.78 ng/mL
same,Plasma buprenorphine concentration,"240 min, Animal 2, intravenous",4.55 ng/mL
same,Plasma buprenorphine concentration,"240 min, Animal 3, intravenous",7.05 ng/mL
same,Plasma buprenorphine concentration,"240 min, mean ± SD, intravenous",5.13 ± 1.71 ng/mL
same,Plasma buprenorphine concentration,"480 min, Animal 1, intravenous",1.46 ng/mL
same,Plasma buprenorphine concentration,"480 min, Animal 2, intravenous",0.97 ng/mL
same,Plasma buprenorphine concentration,"480 min, Animal 3, intravenous",2.00 ng/mL
same,Plasma buprenorphine concentration,"480 min, mean ± SD, intravenous",1.48 ± 0.52 ng/mL

# — patent US20060110333A1 (priority 2002, published 2006)
